Results on 4 compounds are retold here after ChEMBL document CHEMBL1158719, “Cytotoxic xanthones from Cudrania tricuspidata” (J Nat Prod, 2005).

One experiment relates to A549. Put plainly: Cytotoxicity against human A549 cells after 48 hrs by SRB assay. The experiment is classed as functional, cell-based. To be noted: A549, 48 h.
In a further experiment the test system is SK-OV-3. The experiment can be described thus: Cytotoxicity against human SKOV3 cells after 48 hrs by SRB assay. The experiment is classed as functional, cell-based. The conditions noted are these: SK-OV-3, 48 h. In general terms: The SRB assay estimates cell density from bound dye.

`C=CC(C)(C)c1c(O)cc(O)c2c(=O)c3c(CC=C(C)C)c(O)c(O)cc3oc12` [CUDRATRICUSXANTHONE A]: the IC50 (in general, the concentration that inhibits the measured activity by half) in the experiment with A549 was 5.93 µM; in the experiment with SK-OV-3 it was 7.09 µM.
The like results for `C=CC(C)(C)c1c(O)cc2oc3c(CC=C(C)C)c(O)c(O)cc3c(=O)c2c1O` [CUDRAXANTHONE L] were, in that order, 3.15 µM and 4.72 µM.
The like results for `C=CC(C)(C)c1c(O)c(CC=C(C)C)c2oc3cc(O)c(O)cc3c(=O)c2c1O` [MACLURAXANTHONE B] were, in that order, 2.88 µM and 4.24 µM.
The matching figures for `CC(=O)O[C@H]1C(=O)[C@@]2(C)[C@H]([C@H](OC(=O)c3ccccc3)[C@]3(O)C[C@H](OC(=O)[C@H](O)[C@@H](NC(=O)c4ccccc4)c4ccccc4)C(C)=C1C3(C)C)[C@]1(OC(C)=O)CO[C@@H]1C[C@@H]2O` [PACLITAXEL]: 1.25 µM and 1.35 µM.
